We go through 13 compounds from publication PMC12466757, “1,5-Diarylidene-4-Piperidones as Promising Antifungal Candidates Against Cryptococcus neoformans” (Antibiotics, 2025).

The subject of data set [1] is Cryptococcus neoformans (DSM11959). Put plainly: MIC assay against C. neoformans. It is filed as cell-based. The note with it: lowest concentration totally inhibiting growth, 35 °C, 24–48 h.
The nature of data set [2]: in vitro. The following applies: human, Caco-2.
For data set [3], the system named is various human cells, i.e., A498, BEAS-2B, Caco-2, HaCaT, and HepG2.
In data set [4] the test system is A. fumigatus (DSM 819). As to the kind of experiment: MIC assay, filamentous fungus A. fumigatus. The note with it: Aspergillus fumigatus, DSM819; DSM 819, human pathogen; 35 °C, 24–48 h. Format: cell-based.
The subject of data set [5] is Microdochium bolleyi (DSM 62073). As to the kind of experiment: MIC assay, filamentous fungus M. bolleyi. It is filed as cell-based. The note with it: 48–72 h.
The test system of data set [6] is Fusarium graminearum (DSM 1095). Put plainly: microbe, parasite or virus in culture. Format: cell-based. The note with it: DSM1095, read-out: MIC F. graminearum.
Data set [7] deals with Candida auris (DSM 21092). Put plainly: MIC assay, pathogenic yeast C. auris. The following applies: Candidozyma auris, DSM21092, 35 °C, 24–48 h. Format: cell-based.
The test system of data set [8] is Colletotrichum graminicola (DSM 63127). Put plainly: MIC assay, filamentous fungus C. graminicola. The following applies: DSM63127, DSM 63127, plant pathogen, 25 °C, 48–72 h. It is filed as cell-based.
Data set [9] deals with Candida glabrata (DSM 11226). As to the kind of experiment: MIC assay, pathogenic yeast C. glabrata. It is filed as cell-based. The following applies: Nakaseomyces glabratus, DSM11226, 35 °C, 24–48 h.
Data set [10] has as its system Trichophyton rubrum (DSM16111). As to the kind of experiment: MIC assay, filamentous fungus T. rubrum. It is filed as cell-based. The following applies: DSM16111, human pathogen, 35 °C, 24–48 h.
Data set [11] relates to Candida tropicalis (DSM 9419). Put plainly: MIC assay, pathogenic yeast C. tropicalis. It is filed as cell-based. The note with it: DSM9419, 35 °C, 24–48 h.
Data set [12] relates to Aspergillus flavus (DSM 1959). Put plainly: MIC assay, filamentous fungus A. flavus. It is filed as cell-based. The following applies: DSM1959, DSM 1959, plant pathogen, 25 °C, 48–72 h.
Data set [13] relates to Candida albicans (DSM 10697). As to the kind of experiment: MIC assay, pathogenic yeast C. albicans. The following applies: DSM10697, 35 °C, 24–48 h. Format: cell-based.
The subject of data set [14] is Penicillium verrucosum (DSM 12639). Put plainly: MIC assay, filamentous fungus P. verrucosum. Format: cell-based. The following applies: DSM12639, DSM 12639, plant pathogen, 25 °C, 48–72 h.
Data set [15] deals with Magnaporthe oryzae. Put plainly: microbe, parasite or virus in culture. Format: cell-based. The following applies: Pyricularia oryzae, read-out: MIC M. oryzae.
For data set [16], the system named is Staphylococcus aureus (ATCC 6538). As to the kind of experiment: Antibacterial liquid MIC determination, S. aureus. Format: cell-based. The following applies: ATCC6538, Gram-positive.
A short description of data set [17]: Cytotoxicity, resazurin cell viability assay, Caco-2. The following applies: human.
The nature of data set [18]: Cytotoxicity, resazurin cell viability assay, A498. The note with it: human, A498 kidney cells. Background: Alamar Blue is a resazurin reagent that responds to reducing activity.
A short description of data set [19]: Cytotoxicity, resazurin cell viability assay, BEAS-2B. The following applies: human, BEAS-2B airway epithelial cells.
Data set [20] in a line: Cytotoxicity, resazurin cell viability assay, HaCaT. The following applies: human, HaCaT skin cells.
Data set [21] can be described thus: Cytotoxicity, resazurin cell viability assay, HepG2. The note with it: human, HepG2 liver cells.
[22] abbreviates: Cryptococcus neoformans, DSM11959, C. neoformans DSM 11959.
The mark [23] stands for this setting: DSM62073, DSM 62073, plant pathogen, 25 °C.

Molecules are shown by their SMILES. ≈ marks a conversion by molar mass, not a printed value.

On to `CCCCOc1ccc(/C=C2/C(=O)/C(=C/c3ccc(OCCCC)cc3OCCCC)C3CCC2N3C)c(OCCCC)c1` [2n], for which, in [1] (setting [22]), the MIC is > 250 µM.

In turn, `CCCCOc1ccc(/C=C2\CN(Cc3ccccc3)C/C(=C\c3ccc(OCCCC)cc3)C2=O)cc1` [2o] gave an MIC in data set [1] (setting [22]) of 125 µM (≈ 63.7 µg/mL). In data set [2], this compound had a CC50 at 48 h of 455 µM. Also, the “CC50 (range depending on the cell model)” value in [3] is 64.9 to >1000.

For `COc1ccc(/C=C2\CN(Cc3ccccc3)C/C(=C\c3ccc(OC)cc3OC)C2=O)c(OC)c1` [3a], the MIC in [1] (C. neoformans DSM 11959) is >250 µM; in [1] (setting [22]), > 250 µM.

On to `CCCCOc1ccc(/C=C2\CN(Cc3ccccc3)C/C(=C\c3ccc(OCCCC)cc3OCCCC)C2=O)c(OCCCC)c1` [3h], for which the MIC in data set [1] (setting [22]) is 7.8 µM (≈ 5.1 µg/mL); in [4], 31.2 µM (≈ 20.4 µg/mL); in data set [5] (DSM62073, 25 °C) it was 7.8 µM (≈ 5.1 µg/mL); in data set [5] (setting [23]), 31.2 µM (≈ 20.4 µg/mL); in data set [6], 125 µM (≈ 81.7 µg/mL); in data set [7] it was 7.8 µM (≈ 5.1 µg/mL). The MIC in data set [8] amounted to 250 µM (≈ 163 µg/mL); in [9], 7.8 µM (≈ 5.1 µg/mL); in [10], 7.8 µM (≈ 5.1 µg/mL); in data set [11], 125 µM (≈ 81.7 µg/mL); in data set [12] it was 31.2 µM (≈ 20.4 µg/mL); in [13], 62.5 µM (≈ 40.9 µg/mL). Moreover, the MIC came out at 62.5 µM (≈ 40.9 µg/mL) in [14] and 7.8 µM (≈ 5.1 µg/mL) in data set [15]. Besides, in data set [2], the CC50 at 48 h turned out to be 629 µM.

Turning to `CCCCOc1ccc(/C=C2\CN(Cc3ccccc3)C/C(=C\c3ccc(OCCCC)c(OCCCC)c3)C2=O)cc1OCCCC` [3iso-h], the MIC in [1] (setting [22]) is 62.5 µM (≈ 40.9 µg/mL); in data set [4] it was 125 µM (≈ 81.7 µg/mL); in [5] (setting [23]) it was 62.5 µM (≈ 40.9 µg/mL); in [6], > 250 µM; in data set [7] it was 31.2 µM (≈ 20.4 µg/mL); in data set [8] it was 125 µM (≈ 81.7 µg/mL). Also, the MIC in data set [9] was 62.5 µM (≈ 40.9 µg/mL); in [10], 125 µM (≈ 81.7 µg/mL); in data set [11], 125 µM (≈ 81.7 µg/mL); in [12], > 250 µM; in data set [13], 250 µM (≈ 163 µg/mL); in data set [14], 125 µM (≈ 81.7 µg/mL). The MIC in [15] was determined as 15.6 µM (≈ 10.2 µg/mL). In addition, the CC50 at 48 h in data set [2] is > 1000 µM.

For `O=C1/C(=C/c2ccc[nH]2)CN(Cc2ccccc2)C/C1=C\c1ccc[nH]1` [3j], the figures for the MIC in data set [1] (setting [22]) and in [16] were 62.5 µM (≈ 21.5 µg/mL) and 250 µM (≈ 85.9 µg/mL), respectively. The CC50 at 48 h in data set [2] turned out to be 26.1 µM.

For the compound `CCCCOc1ccc(/C=C2\CN(C(=O)OC(C)(C)C)C/C(=C\c3ccc(OCCCC)cc3OCCCC)C2=O)c(OCCCC)c1` [5h], the values for the MIC in [1] (C. neoformans DSM 11959) and in [1] (setting [22]) were >250 µM and > 250 µM, respectively.

With `CCCCOc1ccc(/C=C2\CN(S(C)(=O)=O)C/C(=C\c3ccc(OCCCC)cc3OCCCC)C2=O)c(OCCCC)c1` [6h], the MIC is >250 µM in data set [1] (C. neoformans DSM 11959) and > 250 µM in [1] (setting [22]).

As for `CCCCOc1ccc(/C=C2\CN(C(=O)OCc3ccccc3)C/C(=C\c3ccc(OCCCC)cc3OCCCC)C2=O)c(OCCCC)c1` [7h], the MIC in [1] (C. neoformans DSM 11959) is >250 µM; in [1] (setting [22]), > 250 µM.

`CCCCOc1ccc(/C=C2\CCC/C(=C\c3ccc(OCCCC)cc3OCCCC)C2=O)c(OCCCC)c1` [8h]: the MIC in data set [1] (C. neoformans DSM 11959) was >250 µM; in [1] (setting [22]) it was > 250 µM.

For the compound `CCCCOc1ccc(/C=C2\CC(C)C/C(=C\c3ccc(OCCCC)cc3OCCCC)C2=O)c(OCCCC)c1` (stereo not shown) [9h], in [1] (setting [22]), the MIC is > 250 µM.

As for `CCCCOc1ccc(/C=C2\CC(C(C)(C)C)C/C(=C\c3ccc(OCCCC)cc3OCCCC)C2=O)c(OCCCC)c1` (stereo not shown) [10h], the MIC in data set [1] (setting [22]) was > 250 µM.

`OC(Cn1cncn1)(Cn1cncn1)c1ccc(F)cc1F` [Fluconazole, reference compound]: the CC50 at 48 h in data set [17] was 977 µM; in data set [18], 994 µM; in data set [19], 942 µM; in [20], 841 µM; in data set [21] it was > 1000 µM. For the same compound, the MIC in [1] (setting [22]) is 25 µM (≈ 7.66 µg/mL); in data set [4], > 1000 µM; in data set [5] (setting [23]) it was > 1000 µM; in [6], > 1000 µM; in data set [7] it was 500 µM (≈ 153 µg/mL); in [8], 50 µM (≈ 15.3 µg/mL). The MIC in [9] was 250 µM (≈ 76.6 µg/mL); in [10], > 1000 µM; in data set [11], 1000 µM (≈ 306 µg/mL); in data set [12] it was > 1000 µM; in data set [13] it was 6.25 µM (≈ 1.91 µg/mL); in data set [14], > 1000 µM. The MIC in [15] worked out at 12.5 µM (≈ 3.83 µg/mL). Moreover, the “CC50 (range depending on the cell model)” value in [3] is on record as 841.2 to >1000.
